Laboratory results taken from US10076519B2 (CYTOKINETICS, INC., priority 2010, dated 2018).

System: rabbit skeletal myofibrils (fast skeletal myofibrils)
Experiment: Activation of fast skeletal myofibrils (PUMA assay, PK/LDH-coupled ATPase at pCa25)
Format: biochemical
Details: AC1.4 determined according to the procedure of Example 39; reported as class symbols
Summary of the method: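 ATPase activity of Triton-washed rabbit skeletal myofibrils, roughly 90% fast fibres, tracked by NADH loss at 340 nm through a PK/LDH-coupled ADP-regenerating system. Calcium set to 25% of maximal activity (pCa25), in PIPES 12 mM pH 6.8 with 2 mM MgCl2 and 1 mM DTT; AC1.4 reported.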

Structure (SMILES) | Mean AC1.4
CC(=O)Nc1n[nH]c2ccc(-c3ccc(NCC(C)(C)c4ccc(F)cc4)nn3)cc12 [N-[5-(6-{[2-(4-fluorophenyl)-2-methylpropyl]amino}pyridazin-3-yl)-1H-indazol-3-yl]acetamide] | A (A=<1 uM)
CC(C)(CNc1ccc(-c2cc(N)[nH]n2)nn1)c1ccc(F)cc1 [[6-(5-aminopyrazol-3-yl)pyridazin-3-yl][2-(4-fluorophenyl)-2-methylpropyl]amine] | B (B=1-10 uM)
CC(C)(CNc1ccc(-c2ccc(C(N)=O)nc2)nn1)c1ccc(F)cc1 [5-(6-{[2-(4-fluorophenyl)-2-methylpropyl]amino}pyridazin-3-yl)pyridine-2-carboxamide] | B (B=1-10 uM)
Nc1n[nH]c2ccc(-c3ccc(NCC4(c5ccccc5F)CC4)nn3)cc12 [[6-(3-amino(1H-indazol-5-yl))pyridazin-3-yl]{[(2-fluorophenyl)cyclopropyl]meth-yl}amine] | A (A=<1 uM)
CC(C)(CNc1ccc(-c2cccc(N)c2)nn1)c1ccc(F)cc1 [[6-(3-aminophenyl)pyridazin-3-yl][2-(4-fluorophenyl)-2-methylpropyl]amine] | A (A=<1 uM)
CC(C)(CNc1ccc(-c2cncc(C#N)c2)nn1)c1ccc(F)cc1 [5-(6-{[2-(4-fluorophenyl)-2-methylpropyl]amino}pyridazin-3-yl)pyridine-3-carbonitrile] | B (B=1-10 uM)
CC(C)(CNc1ccc(-c2cccnc2)nn1)c1ccccc1Cl [[2-(2-chlorophenyl)-2-methylpropyl](6-(3-pyridyl)pyridazin-3-yl)amine] | B (B=1-10 uM)
NC(=O)c1cccc(-c2ccc(NCC3CCc4ccccc43)nn2)c1 (stereo not drawn) [3-{6-[(indanylmethyl)amino]pyridazin-3-yl}benzamide] | B (B=1-10 uM)

Same assay, conditions: median AC1.4 class, procedure of Example 39

Structure (SMILES) | Mean AC1.4
NC(=O)[C@H]1C[C@@H]1c1ccc(NCC2(c3ncccc3F)CCC2)nn1 | D (D=>20 uM)
NC(=O)c1cc(-c2ccc(NC3(c4ccc(F)cc4)CCC3)nn2)ccn1 | B (B=1-10 uM)
CNC(=O)Nc1cccc(-c2ccc(NCC3(c4ncccc4F)CCC3)nn2)c1 | A (A=<1 uM)
COC(=O)c1cnc(-c2ccc(NCC3(c4ncccc4F)CCC3)nn2)o1 [methyl 2-[6-({[(3-fluoro-2-pyridyl)cyclobutyl]methyl}ami-no)pyridazin-3-yl]-1,3-oxazole-5-carboxylate] | D (D=>20 uM)
O=C(NCc1cnc(-c2ccc(NCC3(c4ncccc4F)CCC3)nn2)s1)c1cnc(O)[nH]1 [N-({2-[6-({[(3-fluoro(2-pyridyl))cyclobutyl]methyl}ami-no)pyridazin-3-yl](1,3-thiazol-5-yl)}methyl)(2-hydroxyimidazol-5-yl)carboxamide] | A (A=<1 uM)
COC(=O)c1csc(-c2ccc(NCC3(c4ncccc4F)CCC3)nn2)n1 [methyl 2-[6-({[(3-fluoro-2-pyridyl)cyclobutyl]methyl}ami-no)pyridazin-3-yl]-1,3-thiazole-4-carboxylate] | D (D=>20 uM)
O=C(c1cnc(-c2ccc(NCC3(c4ncccc4F)CCC3)nn2)s1)N1CCS(=O)(=O)CC1 [4-({2-[6-({[(3-fluoro-2-pyridyl)cyclobutyl]methyl}ami-no)pyridazin-3-yl]-1,3-thiazol-5-yl}carbonyl)-1,4-thiazaperhydroine-1,1-dione] | B (B=1-10 uM)
O=C(NC1CCNC1=O)c1cnc(-c2ccc(NCC3(c4ncccc4F)CCC3)nn2)s1 (stereo not drawn) [{2-[6-({[(3-fluoro(2-pyridyl))cyclobutyl]methyl}ami-no)pyridazin-3-yl](1,3-thiazol-5-yl)}-N-(2-oxopyrrolidin-3-yl)carboxamide] | B (B=1-10 uM)
NC(=O)c1sc(-c2ccc(NCC3(c4ncccc4F)CCC3)nn2)nc1O [2-[6-({[(3-fluoro(2-pyridyl))cyclobutyl]methyl}ami-no)pyridazin-3-yl]-4-hydroxy-1,3-thiazole-5-carboxamide] | B (B=1-10 uM)
O=C1CC[C@H](C(=O)NCc2cnc(-c3ccc(NCC4(c5ncccc5F)CCC4)nn3)s2)CN1 [((3S)-6-oxo(3-piperidyl))-N-({2-[6-({[(3-fluoro(2-pyridyl))cyclobutyl]methyl}ami-no)pyridazin-3-yl](1,3-thiazol-5-yl)}methyl)carboxamide] | A (A=<1 uM)
NC(=O)c1ccnc(-c2ccc(NCC3(c4ncccc4F)CCC3)nn2)n1 [2-[6-({[(3-fluoro-2-pyridyl)cyclobutyl]methyl}ami-no)pyridazin-3-yl]pyrimidine-4-carboxamide] | A (A=<1 uM)
O=C(NCc1cnc(-c2ccc(NCC3(c4ncccc4F)CCC3)nn2)s1)[C@H]1CS(=O)(=O)CCN1 [((3S)-1,1-dioxo(1,4-thiazaperhydroin-3-yl))-N-({2-[6-({[(3-fluoro(2-pyridyl))cyclobutyl]methyl}ami-no)pyridazin-3-yl](1,3-thiazol-5-yl)}methyl)carboxamide] | A (A=<1 uM)

Same assay, conditions: median AC1.4 reported as class; procedure of Example 39

Structure (SMILES) | Mean AC1.4
Cc1cc(-c2cccc(C(N)=O)c2)nnc1NCC1(c2ncccc2F)CCC1 [3-[6-({[(3-fluoro(2-pyridyl))cyclobutyl]methyl}amino)-5-methylpyridazin-3-yl]benzamide] | D (D=>20 uM)
NC(=O)C1CCc2sc(-c3ccc(NCC4(c5ncccc5F)CCC4)nn3)nc21 (stereo not drawn) [2-[6-({[(3-fluoro-2-pyridyl)cyclobutyl]methyl}ami-no)pyridazin-3-yl]-4,5,6-trihydrocyclopenta[1,2-d]1,3-thiazole-4-carboxamide] | D (D=>20 uM)
O=C(O)CCc1cnc(-c2ccc(NCC3(c4ncccc4F)CCC3)nn2)s1 [3-{2-[6-({[(3-fluoro-2-pyridyl)cyclobutyl]methyl}ami-no)pyridazin-3-yl]-1,3-thiazol-5-yl}propanoic acid] | B (B=1-10 uM)
CNC(=O)c1ccc(F)c(-c2ccc(NCC3(c4ncccc4F)CCC3)nn2)c1 [{4-fluoro-3-[6-({[(3-fluoro(2-pyridyl))cyclobutyl]methyl}ami-no)pyridazin-3-yl]phenyl}-N-methylcarboxamide] | A (A=<1 uM)
CNC(=O)c1cccc(-c2ccc(NC[C@]3(c4ncccc4F)C[C@H](F)C3)nn2)c1O [{3-[6-({[3-fluoro-1-(3-fluoro(2-pyridyl))cyclobutyl]methyl}ami-no)pyridazin-3-yl]-2-hydroxyphenyl}-N-methylcarboxamide] | A (A=<1 uM)
CC(C)[C@H](N)C(=O)N[C@H](C(=O)OCC(=O)NCc1cnc(-c2ccc(NCC3(c4ncccc4F)CCC3)nn2)s1)C(C)C [[N-({2-[6-({[(3-fluoro-2-pyridyl)cyclobutyl]methyl}ami-no)pyridazin-3-yl]-1,3-thiazol-5-yl}methyl)carbamoyl]methyl (2S)-2-((2S)-2-amino-3-methylbutanoylamino)-3-methylbutanoate] | A (A=<1 uM)
CNC(=O)c1cccc(-c2ccc(NCC3(c4ncccc4F)CCC3)nn2)c1 [{3-[6-({[(3-fluoro(2-pyridyl))cyclobutyl]methyl}ami-no)pyridazin-3-yl]phenyl}-N-methylcarboxamide] | B (B=1-10 uM)
